Experiments:
[1] = T release rate comparison in saline incubation media; type: physicochemical; settings: 2, 4 and 6 hours
Method: In order to compare the release rate results of hydrogel encapsulated T to pelleted T, larger gels had to be prepared as the T pellets which the hydrogels are intended to replace are 25 mg, where the E2 pellets are merely 6 mg. Thus, approximately 83 mg of hydrogel at 30% T loading and 1% HA were prepared. In order to achieve even or consistent crosslinking in these much larger hydrogel samples, Likarda's patented micromolds (shown in FIG. 21) were employed. After formation, the encapsulated T was removed from the molds and placed in tubes to be rotated for an hour. The encapsulated T hydrogels were then removed from the tubes and stored in Dulbecco's PBS buffer. The large hydrogel blocks encapsulating T were then tested and compared to 25 mg T pellets and micronized T powder.
The T powder was produced as a 2.5 mg/mL slurry in buffer to reach the near saturation point of T in the buffer. Samples of the T powder slurry were removed from only the top layer of the slurry fluid to avoid aspirating T particles in the slurry that may have precipitated at to the bottom. T pellets were collected directly from the vials in which they were stored. The 83 mg hydrogels containing 30% T were collected from Dulbecco's PBS buffer, rinsed, and dried. Each of the collected samples was then placed in a separate container of incubation media (saline in this instance) for the release studies. […]

[2] = cited from earlier work

Structure (SMILES) | T release level / approximate saturation level of T in saline [1] | solubility in water compared to E2 [2]
C[C@]12CC[C@H]3[C@@H](CCC4=CC(=O)CC[C@@]43C)[C@@H]1CC[C@@H]2O [T powder, Testosterone] | about 1.5 mg/L | –
C[C@]12CC[C@H]3[C@@H](CCC4=CC(=O)CC[C@@]43C)[C@@H]1CC[C@@H]2O [Testosterone (T), Testosterone] | – | much higher solubility factor in water compared to E2

Source: patent US20250319021A1, “COMPOSITION OF HYDROGEL LOADED WITH HORMONE” (VITALTE LIFESCIENCES INC., priority 2024, published 2025)
